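Assay format: 96-well plates, 48-hour exposure. GI50 = concentration required for 50% inhibition of growth.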 Active and inactive are the calls of the source. Rule as the data show it: active = GI50 up to about 1.1 µM and inactive = higher.

Test systems include DU-145; HT-29; MDA-MB-435; SW-620; SN12C; SK-MEL-2; NCI-H460; HCT-15; OVCAR-3; HL-60; SNB-75; HOP-92; NCI-H522; OVCAR-4; UO-31; Malme-3M; UACC-62; 786-0; ACHN; SK-MEL-5.
Assay in all cases: NCI anticancer screen, dose series, 48 h

As for `C#CCN1CCN(C(=S)N/N=C(\C)c2ccccn2)CC1`, the GI50 with DU-145 was 1.48 µM (inactive); in the assay on HT-29, 115 nM (active); with MDA-MB-435 it was 1.49 µM (inactive); with SW-620, 26.2 nM (active); in the assay on SN12C, 232 nM (active); with SK-MEL-2, 262 nM (active). In addition, the GI50 with NCI-H460 is 619 nM (active); in the assay with HCT-15 it was 10 nM; with OVCAR-3, < 57 nM (active); with HL-60, 10 nM (active); in the assay on SNB-75, 4.86 µM (inactive); in the assay with HOP-92, 166 nM (active). Besides, the GI50 is 55.2 nM (active) in the assay with NCI-H522; 350 nM (active) in the assay with OVCAR-4; 634 nM (active) in the assay on UO-31; 1 µM (active) in the assay with Malme-3M; 25.2 nM (active) in the assay on UACC-62; 72.1 nM (active) with 786-0. For the same compound, the figures for the GI50 in the assay on ACHN and in the assay on SK-MEL-5 were 44 nM (active) and 1.36 µM (inactive), respectively.

For the origin of these results see ChEMBL document CHEMBL1201862, “PubChem BioAssay data set” (2004).
